Here are results for four compounds from patent EP3878462B1 (priority 2015, dated 2017).

Where two headings read alike, the source gives them in different places.

One data set has as its system L1210 leukemia cells. The data set is described as follows: Survival of mice transplanted with L1210 leukemia cells. The settings on record: single agent: AraC 1000 mg/kg IP Days 2, 5, 8, or DNase II 15 or 45 mg/kg/day IP; Figure 4. The data set is classed as in vivo, DBA2 mice. The procedure: Treatment with DNase and AraC was initiated on Day 1 of experiment. Cytosine arabinoside (AraC; Cytosar; Pfizer) was injected IP at a dose of 1000 mg/kg on Days 2, 5 and 8. The injected doses were considered adequate for the model and injection route based on prior experiments (13-14). DNase II (Wornington) was injected IP at doses of 15 mg/kg/day and 45 mg/kg/day on Days 1, 3, 5, 8, 10, 12, 15, 17, and 19.
Animals were randomized into 6 experimental groups of 6 mice per group as follows: • 1. Group I: negative control (no treatment); • 2. Group II: positive control (animals treated with AraC); • 3. Group III: animals treated with AraC and 15 mg/kg DNase; • 4. Group IV: animals treated with AraC and 45 mg/kg DNase; • 5. Group V: animals treated with 15 mg/kg DNase, no AraC; • 6. Group VI: animals treated with 45 mg/kg DNase, no AraC.

For data set [1] the following is noted: Etoposide 200 mg/kg + 5-FU 400 mg/kg per os, treatment 50 mg/kg IV. The procedure:
On Day 1, Etoposide (LANCE) 200 mg/kg and 5-fluorouracil (5-FU; EBEWE) 400 mg/kg were given orally via feeding needle in 500 pl of a 9% glucose solution. Animals were divided into 4 groups of 16 rats each. […] Group I: IV placebo (WFI); • 2. Group II: human recombinant DNase I (Pharmsynthez OJSC) at 1.5 mg/kg (3000 KU/kg) dose IV; • 3. Group III: human recombinant DNase I (Pharmsynthez OJSC) at 50 mg/kg (100000 KU/kg) dose IV; • 4. Group IV: cimetidine solution (Gedeon Richter) at 50 mg/kg dose IV.
36 hours later, all animals were euthanized and their stomachs were removed and analyzed for the presence of erosions and hemorrhages using an automated video analyzer system.

For data set [2] the following is noted: for Body weight of surviving rats: Doxorubicin 3.75 mg/kg plus DNase I 15 mg/kg/day IP or placebo; for Number of dead/out of total in group: monitored 2 weeks. An excerpt:
Group I: control group (no Doxorubicin, no DNase); • 2.
Animals were monitored during 2 weeks from the beginning of experiment for survival and weight.

The conditions of data set [3]: surviving rats, Day 14; Doxorubicin 3.75 mg/kg plus DNase I 15 mg/kg/day IP or placebo.
Protocol: 42 Wistar male rats (180-200 g) were used in this experiment (obtained from Stolbovaya nursery of Russian Academy of Medical Sciences). Animals were kept under standard conditions with free access to food and drinking water. Animals were randomized into 7 groups (6 animals in each group) as follows: • 1. Group I: control group (no Doxorubicin, no DNase); • 2. Group II: animals treated by daily intravenous (IV) injections of Doxorubicin (LENS) at 3.75 mg/kg/day dose for 5 days plus daily intraperitoneal (IP) injections of human recombinant DNase I (Pharmsynthez OJSC) at 15 mg/kg/day dose (30000 KU/kg/day); Doxorubicin and DNase I injections were administered at the same time; • 3. Group III: animals treated by daily IV injections of Doxorubicin (LENS) at 3.75 mg/kg/day dose for 5 days plus daily IP injections of placebo (water for injection [WFI]); • 4. Group IV: animals treated by daily IV injections of Doxorubicin (LENS) at 7.5 mg/kg/day dose for 5 days plus daily IP injections of human recombinant DNase I (Pharmsynthez OJSC) at 15 mg/kg/day dose (30000 KU/kg/day); Doxorubicin and DNase I injections were administered at the same time; • 5. Group V: animals treated by daily IV injections of Doxorubicin (LENS) at 7.5 mg/kg/day dose for 5 days plus daily IP injections of placebo (WFI); • 6. Group VI: animals treated by daily IV injections of Doxorubicin (LENS) at 10.0 mg/kg/day dose for 5 days plus daily IP injections of human recombinant DNase I (Pharmsynthez OJSC) at 15 mg/kg/day dose (30000 KU/kg/day); Doxorubicin and DNase I injections were administered at the same time; • 7. Group VII: animals treated by daily IV injections of Doxorubicin (LENS) at 10.0 mg/kg/day dose for 5 days plus daily IP injections of placebo (WFI).
The test system of a further data set is Thymocytes. As to the kind of experiment: Con A-induced lymphocyte blast transformation of thymocytes from paclitaxel-treated mice (3H thymidine incorporation). The data set is classed as in vivo, (CBAxC57Bl6) F1 mice. Particulars: thymocytes collected 24 hours after paclitaxel 20 mg/kg IV, with or without DNase gamma 2 mg/kg IP 1 hour later, scintillation counts. Here is the method:
10 male 6-week-old (CBAxC57Bl6) F1 mice (obtained from Rappolovo animal house) were given a single 20 mg/kg dose of paclitaxel (Paclitaxel-Teva) IV. A group of 5 paclitaxel treated mice were injected IP 1 hour later with recombinant mouse DNase gamma (USCN Life Science Inc.) at 2 mg/kg dose IP. A group of 5 […] mice were injected IP at the same time with 1 ml of placebo (WFI) to serve as the control. All mice were killed 24 hours later by cervical dislocation. The thymuses from each group were collected and homogenized in a separator in RPMI 1640 media supplemented with 10% fetal calf serum. The suspension of thymocytes was filtered and sedimented in a centrifuge at 400xg for 2 minutes and then resuspended with the same media. Thymocytes were plated into 96 well plates (900,000 cells per well in 200 pl of RPMI 1640 supplemented with 10% fetal calf serum (FCS)) and incubated for 32 hours at 37°C, 100% humidity and 5% COz atmosphere. Each well was then supplemented with ^3H thymidine (UC/10pl/well) and Concanavalin A (ConA; 50pl; 1.25 pg/ml). After 24 hours of further incubation, thymocytes were harvested and dried. Labeled ^3H thymidine incorporation was measured using a Beckman scintillation counter.

Where [4] appears, read: Doxorubicin 3.75 mg/kg/day IV for 5 days plus DNase I 15 mg/kg/day IP or placebo (WFI).
Setting [5] is: Doxorubicin 7.5 mg/kg/day IV for 5 days plus DNase I 15 mg/kg/day IP or placebo (WFI).
[6] abbreviates: Doxorubicin 10.0 mg/kg/day IV for 5 days plus DNase I 15 mg/kg/day IP or placebo (WFI).

On to `Nc1ccn([C@@H]2O[C@H](CO)[C@@H](O)[C@@H]2O)c(=O)n1` [AraC, cytosine arabinoside], for which the survival rates result in the data set on L1210 leukemia cells is “better survival rates versus non-treated mice”.

Regarding `CN/C(=N/CCSCc1nc[nH]c1C)NC#N` [Cimetidine, cimetidine], in data set [1], the “Median number of lesions” value stood at 2.5±1.1 and the “Number of lesion free animals (percent)” value is listed as 62.5%. Besides, the “Total number of lesions per group” value in data set [1] (16 animals, 36 hours later) was found to be 40. Further, the “Number of lesion free animals” value in data set [1] (of 16 animals) was 10.

In the case of `COc1cccc2c1C(=O)c1c(O)c3c(c(O)c1C2=O)C[C@@](O)(C(=O)CO)C[C@@H]3O[C@H]1C[C@H](N)[C@H](O)[C@H](C)O1` [Doxorubicin], the “Body weight of surviving rats” value in data set [2] (Baseline (before doxorubicin)) is 164 ± 6 grams. The “Body weight of surviving rats” value in data set [2] (Day 4) amounted to 143 ± 6 grams. In addition, the “Body weight of surviving rats” value in data set [2] (Day 7) stood at 151 ± 7 grams. In addition, in data set [2] (Day 14), the “Body weight of surviving rats” value came to 156 ± 6 grams. In data set [2] (setting [4]), the “Median survival of deceased rats” value was determined as 12 ± 2.1 days and the “Number of dead/out of total in group” value is on record as 3/6. Moreover, in data set [2] (setting [5]), the “Median survival of deceased rats” value worked out at 8.2 ± 1.0 days and the “Number of dead/out of total in group” value is reported as 5/6. Moreover, in data set [2] (setting [6]), the “Median survival of deceased rats” value worked out at 6.6 ± 0.9 days and the “Number of dead/out of total in group” value was 6/6. In data set [3], the Basophils is 0%, the Eosinophils is listed as 2.4±0.3%, the Glucose is 6.1 ± 0.2 mmol/L and the Haemoglobin is recorded as 9.5±0.7 G%. For the same compound, in data set [3], the Hematocrit came out at 30.5±2.2%, the K amounted to 5.6 ± 0.3 mmol/L, the Lymphocytes stood at 82.3±2.2% and the Monocyte was determined as 2.3±0.5%. Moreover, in data set [3], the Na amounted to 144 ± 2 mmol/L, the Plasmatic cells turned out to be 1.3±0.5%, the Platelets was 340±25 10^9/L and the Protein turned out to be 54.7 ± 7.3 g/L. In data set [3], the RBC sedimentation count was determined as 24.1±4.5 mm/h, the Segmented neutrophils amounted to 11.6±1.3%, the Total cholesterol is 1.10 ± 0.29 mmol/L and the Total lipids came out at 2.06 ± 0.27 g/L. In data set [3], the Urea is 7.21 ± 0.3 mmol/L and the WBC is recorded as 4.9±0.2 10^9/L.

Consider `CC(=O)O[C@H]1C(=O)[C@@]2(C)[C@H]([C@H](OC(=O)c3ccccc3)[C@]3(O)C[C@H](OC(=O)[C@H](O)[C@@H](NC(=O)c4ccccc4)c4ccccc4)C(C)=C1C3(C)C)[C@]1(OC(C)=O)CO[C@@H]1C[C@@H]2O` [Paclitaxel, paclitaxel], for which the “Con A-induced ^3HT incorporation” value in the data set with Thymocytes (ConA) came out at 1686±142 CPM. Also, the “Basal ^3HT incorporation” value in the data set with Thymocytes turned out to be 277±21 CPM.
